Test results published in patent US20100249064A1, “METHODS AND COMPOSITIONS FOR TREATING DISEASES AND CONDITIONS INVOLVING HIGHER MOLECULAR WEIGHT HYALURONAN” (University of Chicago, priority 2007, published 2010).
“Also recorded” adds a separate entry of the source.

How the values were obtained:
[1] = tested on: c-Met, CD44v10, Tiam1, cortactin, dynamin 2 in CEM; assay: HGF-induced recruitment of proteins to caveolin-enriched microdomains (CEM); format: cell-based, human
Protocol: Caveolin-enriched microdomain (CEM) isolation—Caveolin-enriched microdomain known as detergent-resistant membranes (DRM) or lipid rafts were isolated from HPMVEC (Singleton et al., 2006; Singleton et al., 2005). Triton X-100-insoluble materials were mixed with 0.6 ml of cold 60% Optiprep™ and then overlaid with 0.6 ml of 40%-20% Optiprep™. Gradients were centrifuged (35,000 rpm) in SW60 rotor for 12 h at 4° C. and different fractions were collected and analyzed.
Immunoprecipitation and Immunoblotting—Cellular materials from treated or untreated HPMVEC were incubated with IP buffer (50 mM HEPES (pH 7.5), 150 mM NaCl, 20 mM MgCl2, 1% Nonidet P-40 (NP-40), 0.4 mM Na3VO4, 40 mM NaF, 50 μM okadaic acid, 0.2 mM phenylmethylsulfonyl fluoride, 1:250 dilution of Calbiochem protease inhibitor mixture 3). Following immunoprecipitation with either anti-CD44 or anti-dynamin 2 IgG, the samples were subjected to SDS-PAGE in 4-15% polyacrylamide gels, transferred onto Immobilon™ membranes, and developed with specific primary and secondary antibodies. Enhanced chemiluminescence (Amersham Biosciences) was used to visualize immunoreactive bands. In some instances, standardized average grey values (S.A.G.V., processed from ImageQuant™ software (Amersham Biosciences)) were obtained for immunoreactive bands for quantification.
Determination of Complex Formation between CD44 and c-Met—Solubilized CEM proteins in IP buffer (see above) were immunoprecipitated with rat anti-CD44 antibody or anti-c-Met antibody followed by SDS-PAGE in 4-15% polyacrylamide gels and transfer onto Immobilon™ membranes (Millipore Corp., Bedford, Mass.). Nonspecific sites were blocked with 5% bovine serum albumin, and then the blots were incubated with either rat anti-CD44 antibody or mouse anti-c-Met antibody followed by incubation with horseradish peroxidase (HRP)-labeled goat anti-mouse or goat anti-rat IgG. Visualization of immunoreactive bands was achieved using enhanced chemiluminescence (Amersham Biosciences).

Rac1 = Rac1 activation assay, HGF; format: cell-based, human; settings: HGF 25 ng/ml
Protocol: Rac1 Activation Assay—Rac1 activity assays were performed as described (Ren et al., 1999) in human lung EC.

[2] = tested on: LPS-induced murine lung vascular permeability; assay: LPS-induced murine lung vascular permeability, bronchioalveolar lavage (BAL) protein and cytokines; format: in vivo, mouse
Protocol: Animal Preparation and Treatment—Male C57BL/6J and CD44 knockout mice (8-10 weeks, Jackson Laboratories, Bar Harbor, Me.) were anesthetized with intraperitoneal ketamine (150 mg/kg) and acetylpromazine (15 mg/kg) according to approved protocols. LPS (2.5 mg/kg) or saline (control) were instilled intratracheally and four hours later, HGF (50 μg/kg) or saline control delivered intravenously through the internal jugular vein. The animals were allowed to recover for 24 h followed by bronchioalveolar lavage protein analysis and/or lung immunohistochemistry.
Determination of Bronchioalveolar Lavage Protein Concentration—Bronchioalveolar lavage (BAL) was performed by an intratracheal injection of 1 cc of Hank's balanced salt solution followed by gentle aspiration. The recovered fluid was processed for protein concentration (BCA Protein Assay Kit; Pierce Chemical Co., Rockford, Ill.) as described (Su et al., 2004).
Animals. Male C57BL/6J mice, CD44 knockout mice, Caveolin-1 knockout mice (8-10 weeks, Jackson Laboratories, Bar Harbor, Me.) were anesthetized with intraperitoneal ketamine (150 mg/kg) and acetylpromazine (15 mg/kg) according to approved protocols. LPS (2.5 mg/kg) or saline (control) were instilled intratracheally and four hours later, HMW-HA (1.5 mg/kg) or saline control delivered intravenously through the internal jugular vein. The animals were allowed to recover for 24 hours followed by bronchioalveolar lavage protein analysis and/or lung immunohistochemistry.
Determination of protein concentration. Total protein concentration. TGF-alpha concentration. TGF-beta1 concentration. Bronchioalveolar lavage (BAL) was performed by an intratracheal injection of 1 cc of Hank's balanced salt solution followed by gentle aspiration. The recovered fluid was processed for protein concentration (BCA Protein Assay Kit; Pierce Chemical Co., Rockford, Ill.) or used to determine TNF-α and TGF-β1 concentrations using quantitative sandwich enzyme immunoassays (R & D Systems, Minneapolis, Minn.).
Animal Preparation and Treatment. Male C57BL/6J, B6129N2, CD44^−/− or caveolin-1^−/− mice (8-10 weeks, Jackson Laboratories, Bar Harbor, Me.) were anesthetized with intraperitoneal ketamine (150 mg/kg) and acetylpromazine (15 mg/kg) before exposure of the right internal jugular vein via neck incision. LPS (2.5 mg/kg) or water (control) were instilled intratracheally. Four hours later, mice receive high MW HA (1.5 mg/kg) or water control through the internal jugular vein. The animals were allowed to recover for 24 hours after LPS before bronchioalveolar lavage protein and cytokine concentration and/or lung immunohistochemistry/immunoblot analysis (Peng et al., 2004).
Determination of Bronchoavleolar Lavage Protein and Cytokine Concentration. Bronchioalveolar lavage (BAL) was performed by an intratracheal injection of 1 cc of Hank's balanced salt solution followed by gentle aspiration. The recovered fluid was processed for protein concentration (BCA Protein Assay Kit; Pierce Chemical Co., Rockford, Ill.) (Peng et. al., 2004). Cytokines (IL-6, TNFalpha) were measured using a Quantikine sandwich ELISA kit (R & D Systems).

ARDS = settings: cited from earlier work; for Outcome (clinical trials in ARDS): patients with ARDS
MARCKS and NHE1 = assay: LPS-induced phosphorylation of MARCKS and NHE1 (immunoprecipitation/immunoblot); format: cell-based, human; settings: LPS 1 μg/ml, 4 hours, HMW-HA 100 nM or Y-27632 500 nM
purified HABP2 = target: T1, purified HABP2 (Homo sapiens, UniProt Q14520); assay: HABP2 protease assay (QuantiCleave, succinylated casein); format: biochemical; settings: 100 μM purified PABD, 500 nM HMW-HA or LMW-HA
T1 construct: host or cells: human pulmonary endothelial cells (EC); secreted into the medium, immunoprecipitated with anti-HABP2 antibody
Protocol: HABP2 protease assay. Protease activity is measured using the QuantiCleave™ Protease Assay Kit (Pierce). Briefly, the immunobeads are incubated with succinylated casein for one hour followed by development with TNBSA (2,4,6-trinitrobenzene sulfonic acid) and read at 450 nm.
HABP2 protein purification and protease activity determination. Media from HABP2 overexpression vector-transfected EC (Origene) was immunoprecipitated with anti-HABP2 antibody-conjugated Sepharose beads (Sigma). The immunobeads were then extensively washed in 50 mM Borate, pH=8.5 and eluted with 1M NaCl with 0.1% NP-40 and dialyzed against a 1,000 fold excess of 50 mM Borate, pH=8.5. Protein assays were performed to quantitate total protein. The purified protein was run on SDS-PAGE and either immunoblotted with anti-HABP2 antibody (Novus Biologicals) or stained with Imperial™ protein stain (Pierce) to check for purity. Protease activity was measured using the QuantiCleave™ Protease Assay Kit (Pierce). Briefly, the immunobeads were incubated with succinylated casein for one hour followed by development with TNBSA (2,4,6-trinitrobenzene sulfonic acid) and read at 450 nm.
Determination of the role of HMW-HA/HABP2/C1INH interactions in regulating angiogenesis in vitro. Human pulmonary EC (Cambrex), grown in EBM-2 complete medium (Cambrex) at 37° C. in a humidified atmosphere of 5% CO2, 95% air, with passages 6-10 used for experimentation will be treated with or without 100 nM HMW-HA and/or 100 nM VEGF in the presence or absence of HABP2 and/or C1INH overexpression vectors (Origene), exogenous purified recombinant HABP2 polyanion binding domain and/or C1INH (Novus Biologicals) and/or siRNA (scramble, HABP2 or C1INH). For HABP2 protease activity determination, media from HABP2 overexpressing EC (see above) was immunoprecipitated with anti-HABP2 antibody-conjugated Sepharose beads (Sigma). The immunobeads were then extensively washed in 50 mM Borate, pH=8.5 and protease activity was measured using the QuantiCleave™ Protease Assay Kit (Pierce). Briefly, the immunobeads were incubated with succinylated casein for one hour followed by development with TNBSA (2,4,6-trinitrobenzene sulfonic acid) and read at 450 nm.

[3] = target: Hyaluronic Acid Binding Protease 2 (HABP2), human (human, UniProt Q14520 24-560, limits assumed); assay: anti-HABP2 immunoprecipitation of EC media, non-reducing SDS-PAGE, immunoblot with anti-HABP2 or anti-C1INH
Sequence of Hyaluronic Acid Binding Protease 2 (HABP2), human (Q14520 24-560 limits assumed): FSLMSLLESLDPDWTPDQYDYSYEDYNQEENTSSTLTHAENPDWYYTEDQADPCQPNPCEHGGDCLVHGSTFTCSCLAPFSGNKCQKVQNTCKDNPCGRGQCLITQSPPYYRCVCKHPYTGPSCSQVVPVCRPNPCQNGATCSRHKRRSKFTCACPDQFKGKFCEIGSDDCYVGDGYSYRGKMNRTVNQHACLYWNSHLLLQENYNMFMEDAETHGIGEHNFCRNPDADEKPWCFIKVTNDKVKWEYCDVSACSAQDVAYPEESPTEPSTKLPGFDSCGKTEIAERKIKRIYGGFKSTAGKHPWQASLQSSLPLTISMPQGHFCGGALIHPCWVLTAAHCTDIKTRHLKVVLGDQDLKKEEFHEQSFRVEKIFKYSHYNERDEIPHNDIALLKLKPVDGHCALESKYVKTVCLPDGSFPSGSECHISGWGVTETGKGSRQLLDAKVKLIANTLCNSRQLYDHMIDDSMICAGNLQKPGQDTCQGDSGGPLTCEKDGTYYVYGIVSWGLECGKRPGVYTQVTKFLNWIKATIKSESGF

T1 sequence (Q14520 24-560): as the sequence (Q14520 24-560 limits assumed) above

HGF: Recombinant human hepatocyte growth factor (HGF), Chemicon International
recruitment of Tiam1, cortactin and dynamin 2 to CEM ([1]; HGF 25 ng/ml): increased recruitment to these caveolin-enriched plasma membrane microdomain structures
recruitment of total CD44v10 into CD44s-containing CEM ([1]; HGF 25 ng/ml): ~70%
recruitment of total c-Met into CD44s-containing CEM ([1]; HGF 25 ng/ml): ~55%
association of c-Met with CD44v10 in CEM ([1]; HGF 25 ng/ml, 5, 15 or 30 min): induce an association that is time-dependent of c-Met with CD44v10
Rac1 activation (Rac1): induced Rac1 activation
protective effect on LPS-induced pulmonary hyper-permeability (BAL) in knockout mice ([2]; CD44 knockout (and, where stated, Caveolin-1 knockout) mice, same regimen): markedly attenuated in the CD44 knockout mouse; also recorded: significant difference (p<0.05) between the wildtype and CD44 knockout mouse HGF+LPS treatment
LPS-induced pulmonary hyper-permeability (BAL protein concentration) ([2]; wildtype C57BL/6J mice, LPS 2.5 mg/kg intratracheally, HMW-HA 1.5 mg/kg or HGF 50 μg/kg intravenously 4 hours after LPS, BAL at 24 hours): pulmonary hyper-permeability was attenuated; also recorded: significant difference (p<0.05) between LPS treatment and HGF+LPS treatment

Nitric Oxide [NO]
adverse effects (ARDS; ARDS patients): causes methemoglobinemia, increased
pulmonary artery pressure (ARDS; ARDS patients): NO reduces pulmonary artery pressure but
Outcome (clinical trials in ARDS) (ARDS): several multicenter clinical trials have shown no

C[C@@H](N)[C@H]1CC[C@H](C(=O)Nc2ccncc2)CC1 [Y-27632, reference compound]
LPS-induced phosphorylation of MARCKS and NHE1 (MARCKS and NHE1): inhibit LPS-induced phosphorylation of MARCKS and NHE1

C[C@H]1C[C@@H]2[C@H]([C@@H](O)C[C@@]3(C)[C@H]2CC[C@]3(O)C(=O)CO)[C@@]2(C)C=CC(=O)C=C12 [Methyprednisolone]
hospital mortality (ARDS; administered through the fibroproliferative stage of ARDS, 62% in placebo cohort): hospital mortality to 12% from 62% in placebo

C[C@@H](O)CCCCn1c(=O)c2c(ncn2C)n(C)c1=O [Lisofylline]
Outcome (clinical trials in ARDS) (ARDS): trials failed to show efficacy in increasing

B1: recombinant peptide of the PABD of HABP2: recombinant HABP2 polyanion binding domain, amino acids 110-188 of SEQ ID NO:2 (SEQ ID NO:37) (protein, listed as Homo sapiens)
chain: KVQNTCKDNPCGRGQCLITQSPPYYRCVCKHPYTGPSCSQVVPVCRPNPCQNGATCSRHKRRSKFTCACPDQFKGKFCE
blocking of HA effects on HABP2 protease activity (purified HABP2): The effects of LMW-HA, but not HMW-HA, were blocked

B2: C1INH, human (other, UniProt P05155 23-500, looked up)
chain: NPNATSSSSQDPESLQDRGEGKVATTVISKMLFVEPILEVSSLPTTNSTTNSATKITANTTDEPTTQPTTEPTTQPTIQPTQPTTQLPTDSPTQPTTGSFCPGPVTLCSDLESHSTEAVLGDALVDFSLKLYHAFSAMKKVETNMAFSPFSIASLLTQVLLGAGENTKTNLESILSYPKDFTCVHQALKGFTTKGVTSVSQIFHSPDLAIRDTFVNASRTLYSSSPRVLSNNSDANLELINTWVAKNTNNKISRLLDSLPSDTRLVLLNAIYLSAKWKTTFDPKKTRMEPFHFKNSVIKVPMMNSKKYPVAHFIDQTLKAKVGQLQLSHNLSLVILVPQNLKHRLEDMEQALSPSVFKAIMEKLEMSKFQPTLLTLPRIKVTTSQDMLSIMEKLEFFDFSYDLNLCGLTEDPDLQVSAMQHQTVLELTETGVEAAAASAISVARTLLVFEVQQPFLFVLWDQQHKFPVFMGRVYDPRA
notes: also called C1NH; C1 NH
binding result [3]: binds
